Experimental findings from US8076112B2, “Fermentation processes” (priority 2006, dated 2011) are described below.

For this experiment, the system named is Lactobacillus paracasei. Put plainly: Effect of Lysozyme on Lactobacillus in fermentation medium (liquefied corn mash), bacterial plating and counting. It is filed as cell-based. The conditions noted are these: 0-100-300-1000 mg/L Lysozyme in corn mash pH 5.05, 32° C., 0, 24 and 48 hours (FIG. 4). On the procedure:
Milled corn was liquefied in an aqueous slurry (pH 5.6) using 50 NU/g DS Bacterial Alpha-Amylase A by heating until a temperature of 85° C. (approx 20 minutes) was reached. Thereafter the slurry is cooked for another 60 minutes. A sample of the liquefied corn mash (CM) was pH-adjusted to 5.05 with H2SO4. After pH adjustment, the mash was split up into approximately 59 of CM and added to 36 15 mL plastic centrifuge tubes. Various amounts of L. paracasei were then added to give an initial cell count of about 1-3×10^6/mL. Different dosages (0-100-300-1000 mg/L) of Lysozyme (Sigma) were also added to each tube. The tubes were then thoroughly vortexed and placed in a rack in 32° C. water bath. Tubes were pulled after 0, 24, and 48 hours for bacterial plating and counting. No additional Lysozyme was added to any of the tubes after time zero.

Regarding “Lysozyme: Lysozyme from hen egg white, cat # L-7651, purchased from Sigma”, the “Antibacterial effect on Lactobacillus (growth inhibition)” value is recorded as “effective inhibiting growth of Lactobacillus paracasei”.
